According to PubChem BioAssay AID2060491 (Molecular Pharmacology Branch, DTP, NCI, 2025):

Tested on: 857933-349-R-J2-PDC complex spheroids, viability
Test: Anticancer human tumor 857933-349-R-J2-PDC patient-derived colon adenocarcinoma cell line growth inhibition [GQUAD]
Details: for IC50: curve of first compound; for viability, T/C: stronger effect = lower value
In short: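 Multi-cell-type spheroids of tumor cells with HUVEC and mesenchymal stem cells, treated with drug combinations. Concentrations descend in half-log steps from near clinical Cmax, or from 10 microM where Cmax is unknown; viability read-out.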

[1] = second compound 0.0316 µM, first compound 0.0316 µM
[2] = second compound 0.0316 µM, first compound 0.1 µM
[3] = second compound 0.0316 µM, first compound 0.316 µM
[4] = second compound 0.0316 µM, first compound 1 µM
[5] = second compound 0.0316 µM, first compound 3.16 µM
[6] = second compound 0.0316 µM, first compound 10 µM
[7] = second compound 0.1 µM, first compound 0.0316 µM
[8] = second compound 0.1 µM, first compound 0.1 µM
[9] = second compound 0.1 µM, first compound 0.316 µM
[10] = second compound 0.1 µM, first compound 1 µM
[11] = second compound 0.1 µM, first compound 3.16 µM
[12] = second compound 0.1 µM, first compound 10 µM
[13] = second compound 0.316 µM, first compound 0.0316 µM
[14] = second compound 0.316 µM, first compound 0.1 µM
[15] = second compound 0.316 µM, first compound 0.316 µM
[16] = second compound 0.316 µM, first compound 1 µM
[17] = second compound 0.316 µM, first compound 3.16 µM
[18] = second compound 0.316 µM, first compound 10 µM
[19] = second compound 1 µM, first compound 0.0316 µM
[20] = second compound 1 µM, first compound 0.1 µM
[21] = second compound 1 µM, first compound 0.316 µM
[22] = second compound 1 µM, first compound 1 µM
[23] = second compound 1 µM, first compound 3.16 µM
[24] = second compound 1 µM, first compound 10 µM
[25] = second compound 3.16 µM, first compound 0.0316 µM
[26] = second compound 3.16 µM, first compound 0.1 µM
[27] = second compound 3.16 µM, first compound 0.316 µM
[28] = second compound 3.16 µM, first compound 1 µM
[29] = second compound 3.16 µM, first compound 3.16 µM
[30] = second compound 3.16 µM, first compound 10 µM
[31] = second compound 10 µM, first compound 0.0316 µM
[32] = second compound 10 µM, first compound 0.1 µM
[33] = second compound 10 µM, first compound 0.316 µM
[34] = second compound 10 µM, first compound 1 µM
[35] = second compound 10 µM, first compound 3.16 µM
[36] = second compound 10 µM, first compound 10 µM
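Further: spheroids exposed to compounds for one week before readout.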
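Wherever viability, T/C is given: percent viability relative to vehicle DMSO wells taken as 100%.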

CC1COCCN1c1cc(-c2ccnn2C)c2ccnc(-c3ccn[nH]3)c2n1 (stereo not drawn) + CN(C)c1ccc(Nc2c3ccc(NC(=O)CCN4CCCC4)cc3nc3cc(NC(=O)CCN4CCCC4)ccc23)cc1
IC50 (second compound 0.0316 µM): > 10 µM | IC50 (second compound 0.1 µM): > 10 µM | IC50 (second compound 0.316 µM): > 10 µM | IC50 (second compound 1 µM): > 10 µM | IC50 (second compound 3.16 µM): > 10 µM | IC50 (second compound 10 µM): 2.95 µM | viability, T/C [1]: 98.3% | viability, T/C [2]: 80.7% | viability, T/C [3]: 78% | viability, T/C [4]: 60.8% | viability, T/C [5]: 56.2% | viability, T/C [6]: 62.5% | viability, T/C [7]: 96.1% | viability, T/C [8]: 82.5% | viability, T/C [9]: 73.5% | viability, T/C [10]: 58.3% | viability, T/C [11]: 54.3% | viability, T/C [12]: 69.7% | viability, T/C [13]: 90.8% | viability, T/C [14]: 80.8% | viability, T/C [15]: 74.7% | viability, T/C [16]: 59.4% | viability, T/C [17]: 58.6% | viability, T/C [18]: 63.1% | viability, T/C [19]: 93.5% | viability, T/C [20]: 73.4% | viability, T/C [21]: 73.8% | viability, T/C [22]: 55.9% | viability, T/C [23]: 58.4% | viability, T/C [24]: 54.3% | viability, T/C [25]: 85.9% | viability, T/C [26]: 71.8% | viability, T/C [27]: 66.1% | viability, T/C [28]: 53.1% | viability, T/C [29]: 58.9% | viability, T/C [30]: 52.4% | viability, T/C [31]: 75.8% | viability, T/C [32]: 70.8% | viability, T/C [33]: 61.9% | viability, T/C [34]: 55.2% | viability, T/C [35]: 49.6% | viability, T/C [36]: 44.6%

CC1COCCN1c1cc(C2(O)CC3CCC(C2)O3)c2cnn(-c3ccn[nH]3)c2n1 (stereo not drawn) + CN(C)c1ccc(Nc2c3ccc(NC(=O)CCN4CCCC4)cc3nc3cc(NC(=O)CCN4CCCC4)ccc23)cc1
IC50 (second compound 0.0316 µM): 9.43 µM | IC50 (second compound 0.1 µM): > 10 µM | IC50 (second compound 0.316 µM): > 10 µM | IC50 (second compound 1 µM): > 10 µM | IC50 (second compound 3.16 µM): > 10 µM | IC50 (second compound 10 µM): 3.11 µM | viability, T/C [1]: 104% | viability, T/C [2]: 90.6% | viability, T/C [3]: 73.8% | viability, T/C [4]: 61.5% | viability, T/C [5]: 51.4% | viability, T/C [6]: 50.7% | viability, T/C [7]: 97.8% | viability, T/C [8]: 92.4% | viability, T/C [9]: 75.6% | viability, T/C [10]: 60.2% | viability, T/C [11]: 53.8% | viability, T/C [12]: 55.4% | viability, T/C [13]: 94.1% | viability, T/C [14]: 82.5% | viability, T/C [15]: 74.2% | viability, T/C [16]: 52.7% | viability, T/C [17]: 56.9% | viability, T/C [18]: 54.1% | viability, T/C [19]: 92.8% | viability, T/C [20]: 76% | viability, T/C [21]: 71% | viability, T/C [22]: 54.6% | viability, T/C [23]: 62.6% | viability, T/C [24]: 50.1% | viability, T/C [25]: 88.2% | viability, T/C [26]: 71.9% | viability, T/C [27]: 75.3% | viability, T/C [28]: 55% | viability, T/C [29]: 59.4% | viability, T/C [30]: 50% | viability, T/C [31]: 70.7% | viability, T/C [32]: 70.2% | viability, T/C [33]: 63.5% | viability, T/C [34]: 54.9% | viability, T/C [35]: 51.7% | viability, T/C [36]: 40.8%

CC1COCCN1c1cc(C2(S(C)(=N)=O)CC2)nc(-c2ccnc3[nH]ccc23)n1 (stereo not drawn) + CN(C)c1ccc(Nc2c3ccc(NC(=O)CCN4CCCC4)cc3nc3cc(NC(=O)CCN4CCCC4)ccc23)cc1
IC50 (second compound 0.0316 µM): > 10 µM | IC50 (second compound 0.1 µM): > 10 µM | IC50 (second compound 0.316 µM): > 10 µM | IC50 (second compound 1 µM): > 10 µM | IC50 (second compound 3.16 µM): > 10 µM | IC50 (second compound 10 µM): > 10 µM | viability, T/C [1]: 104% | viability, T/C [2]: 108% | viability, T/C [3]: 102% | viability, T/C [4]: 87.7% | viability, T/C [5]: 82.4% | viability, T/C [6]: 63.2% | viability, T/C [7]: 106% | viability, T/C [8]: 102% | viability, T/C [9]: 101% | viability, T/C [10]: 94.9% | viability, T/C [11]: 75.1% | viability, T/C [12]: 69.2% | viability, T/C [13]: 103% | viability, T/C [14]: 99.1% | viability, T/C [15]: 97.8% | viability, T/C [16]: 88.8% | viability, T/C [17]: 86.6% | viability, T/C [18]: 66.1% | viability, T/C [19]: 99.2% | viability, T/C [20]: 94.6% | viability, T/C [21]: 96.4% | viability, T/C [22]: 88% | viability, T/C [23]: 82.5% | viability, T/C [24]: 62.7% | viability, T/C [25]: 92.3% | viability, T/C [26]: 84.9% | viability, T/C [27]: 94.8% | viability, T/C [28]: 81.2% | viability, T/C [29]: 81.6% | viability, T/C [30]: 59.6% | viability, T/C [31]: 70.8% | viability, T/C [32]: 76.8% | viability, T/C [33]: 77.5% | viability, T/C [34]: 78% | viability, T/C [35]: 69.8% | viability, T/C [36]: 61.4%

COc1ccc([C@@H](O)c2cc(-c3ncnc4cc(N5CCOCC5)ccc34)c(F)cc2Cl)nn1 + CN(C)c1ccc(Nc2c3ccc(NC(=O)CCN4CCCC4)cc3nc3cc(NC(=O)CCN4CCCC4)ccc23)cc1
IC50 (second compound 0.0316 µM): > 10 µM | IC50 (second compound 0.1 µM): > 10 µM | IC50 (second compound 0.316 µM): > 10 µM | IC50 (second compound 1 µM): > 10 µM | IC50 (second compound 3.16 µM): > 10 µM | IC50 (second compound 10 µM): > 10 µM | viability, T/C [1]: 110% | viability, T/C [2]: 99.5% | viability, T/C [3]: 101% | viability, T/C [4]: 93.3% | viability, T/C [5]: 82.5% | viability, T/C [6]: 61% | viability, T/C [7]: 106% | viability, T/C [8]: 101% | viability, T/C [9]: 103% | viability, T/C [10]: 94.2% | viability, T/C [11]: 80.9% | viability, T/C [12]: 60.1% | viability, T/C [13]: 102% | viability, T/C [14]: 101% | viability, T/C [15]: 99.1% | viability, T/C [16]: 85.8% | viability, T/C [17]: 83.6% | viability, T/C [18]: 58.2% | viability, T/C [19]: 98.8% | viability, T/C [20]: 91.2% | viability, T/C [21]: 99.3% | viability, T/C [22]: 85.4% | viability, T/C [23]: 79% | viability, T/C [24]: 62.4% | viability, T/C [25]: 85.2% | viability, T/C [26]: 85.9% | viability, T/C [27]: 91.5% | viability, T/C [28]: 77.8% | viability, T/C [29]: 69.5% | viability, T/C [30]: 57.1% | viability, T/C [31]: 73.5% | viability, T/C [32]: 77.9% | viability, T/C [33]: 70.4% | viability, T/C [34]: 72.5% | viability, T/C [35]: 63.4% | viability, T/C [36]: 54.8%
